The target of one assay is T1, human Fatty Acid Synthase (Homo sapiens, UniProt P49327).
T1 construct: made in house
T1 sequence (P49327 whole entry): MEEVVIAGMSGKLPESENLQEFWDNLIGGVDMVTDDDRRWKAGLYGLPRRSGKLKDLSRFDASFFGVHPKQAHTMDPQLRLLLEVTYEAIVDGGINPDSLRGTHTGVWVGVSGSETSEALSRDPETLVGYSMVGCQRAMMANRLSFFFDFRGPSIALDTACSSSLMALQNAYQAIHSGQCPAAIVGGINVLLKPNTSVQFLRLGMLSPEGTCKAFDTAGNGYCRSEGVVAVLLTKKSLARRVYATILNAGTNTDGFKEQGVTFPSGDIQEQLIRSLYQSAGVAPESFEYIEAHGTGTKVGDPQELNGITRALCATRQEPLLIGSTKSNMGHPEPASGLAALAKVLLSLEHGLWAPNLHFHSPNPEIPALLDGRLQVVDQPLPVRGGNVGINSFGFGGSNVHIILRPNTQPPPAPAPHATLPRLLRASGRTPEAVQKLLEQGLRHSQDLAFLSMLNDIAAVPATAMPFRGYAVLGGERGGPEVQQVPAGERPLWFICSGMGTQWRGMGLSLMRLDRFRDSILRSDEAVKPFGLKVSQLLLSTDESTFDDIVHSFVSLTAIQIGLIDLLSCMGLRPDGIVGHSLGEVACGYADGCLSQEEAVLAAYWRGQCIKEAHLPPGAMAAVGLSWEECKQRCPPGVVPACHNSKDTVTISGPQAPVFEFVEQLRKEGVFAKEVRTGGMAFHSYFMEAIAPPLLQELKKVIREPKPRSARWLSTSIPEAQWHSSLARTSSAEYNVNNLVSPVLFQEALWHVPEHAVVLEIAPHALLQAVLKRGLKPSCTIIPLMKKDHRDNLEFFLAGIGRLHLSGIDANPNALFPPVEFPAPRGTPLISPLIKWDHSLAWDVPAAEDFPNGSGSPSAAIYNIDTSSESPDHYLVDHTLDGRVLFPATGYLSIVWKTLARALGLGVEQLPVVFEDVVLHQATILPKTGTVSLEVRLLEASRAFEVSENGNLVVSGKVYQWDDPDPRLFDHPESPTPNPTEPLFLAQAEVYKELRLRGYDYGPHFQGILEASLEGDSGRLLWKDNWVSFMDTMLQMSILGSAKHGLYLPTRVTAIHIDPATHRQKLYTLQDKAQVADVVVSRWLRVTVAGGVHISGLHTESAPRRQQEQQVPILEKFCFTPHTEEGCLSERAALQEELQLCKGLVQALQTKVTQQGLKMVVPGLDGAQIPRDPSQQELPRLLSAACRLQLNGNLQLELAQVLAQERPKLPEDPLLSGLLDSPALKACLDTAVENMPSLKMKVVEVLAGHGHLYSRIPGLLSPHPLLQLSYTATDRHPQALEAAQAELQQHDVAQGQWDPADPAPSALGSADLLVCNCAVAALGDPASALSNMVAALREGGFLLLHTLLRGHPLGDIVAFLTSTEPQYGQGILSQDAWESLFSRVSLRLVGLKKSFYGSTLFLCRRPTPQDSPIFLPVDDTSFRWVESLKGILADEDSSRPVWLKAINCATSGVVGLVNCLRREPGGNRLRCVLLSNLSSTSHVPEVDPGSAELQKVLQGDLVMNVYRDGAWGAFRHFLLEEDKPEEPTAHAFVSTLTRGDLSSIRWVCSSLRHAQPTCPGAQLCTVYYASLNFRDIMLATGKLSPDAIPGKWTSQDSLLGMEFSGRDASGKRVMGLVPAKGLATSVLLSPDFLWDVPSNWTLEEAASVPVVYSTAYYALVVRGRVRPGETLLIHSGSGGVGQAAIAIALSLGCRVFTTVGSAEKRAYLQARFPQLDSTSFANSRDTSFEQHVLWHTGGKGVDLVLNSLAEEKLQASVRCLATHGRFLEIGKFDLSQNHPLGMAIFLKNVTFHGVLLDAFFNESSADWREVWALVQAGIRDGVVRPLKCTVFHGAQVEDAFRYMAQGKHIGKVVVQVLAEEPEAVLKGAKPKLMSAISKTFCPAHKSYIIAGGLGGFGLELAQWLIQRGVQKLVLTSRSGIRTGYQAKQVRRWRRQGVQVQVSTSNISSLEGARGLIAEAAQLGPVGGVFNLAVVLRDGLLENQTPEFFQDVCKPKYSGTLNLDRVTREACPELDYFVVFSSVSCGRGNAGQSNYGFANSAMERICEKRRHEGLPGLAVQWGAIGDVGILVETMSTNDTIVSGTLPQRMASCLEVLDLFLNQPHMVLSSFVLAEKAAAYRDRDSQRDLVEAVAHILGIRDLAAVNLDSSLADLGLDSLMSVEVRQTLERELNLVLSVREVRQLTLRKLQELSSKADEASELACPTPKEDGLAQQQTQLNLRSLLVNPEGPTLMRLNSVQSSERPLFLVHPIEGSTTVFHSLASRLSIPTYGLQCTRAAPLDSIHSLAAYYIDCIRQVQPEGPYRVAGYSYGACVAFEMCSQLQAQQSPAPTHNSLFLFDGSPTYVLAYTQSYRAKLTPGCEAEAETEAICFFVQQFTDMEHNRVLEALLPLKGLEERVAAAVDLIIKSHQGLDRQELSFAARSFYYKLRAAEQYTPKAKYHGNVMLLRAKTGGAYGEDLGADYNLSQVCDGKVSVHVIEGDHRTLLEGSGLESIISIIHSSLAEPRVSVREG
Put plainly: Human FAS enzyme assay (decrease in NADPH fluorescence). The assay is classed as biochemical. To be noted: % inhibition at a concentration of 100 μmolar. In short, it runs like this: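 In-house human FAS was preincubated with compound and NADPH for 15 min at room temperature in 0.1 M Tris pH 7.5 with EDTA, glutathione and BSA. Malonyl CoA and acetyl CoA (500 μM and 150 μM in the added mix) were then added for 60 min. IC50 came from time-zero-subtracted NADPH fluorescence (340/460 nm).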
As to `Cc1ccc(C(=O)N2CCC(c3ccc(C#N)cc3)CC2)cc1NC(=O)NCCCS(C)(=O)=O` [Example 223, 1-[5-[4-(4-cyanophenyl)piperidine-1-carbonyl]-2-methyl-phenyl]-3-(3-methylsulfonylpropyl)urea], the inhibition (as a rule, the change of the read-out against control, counted positive when it falls) at 100 µM was found to be 92.8%. The same measure, in the same setting: in the case of `Cc1ccc(C(=O)N2CCC(c3ccc(C(F)(F)F)cc3)CC2)cc1NC(=O)NCCNC(=O)OC(C)(C)C` [Example 336, tert-butyl N-[2-[[2-methyl-5-[4-[4-(trifluoromethyl)phenyl]piperidine-1-carbonyl]phenyl]carbamoylamino]ethyl]carbamate] it was 86.9%; in that of `CCS(=O)(=O)N[C@H]1CC[C@H](NC(=O)Nc2cc(C(=O)N3CCC(c4ccc(C#N)cc4)CC3)ccc2C)C1` [Example 324, 3-[5-[4-(4-cyanophenyl)piperidine-1-carbonyl]-2-methyl-phenyl]-1-[(1S,3S)-3-(ethylsulfonylamino)cyclopentyl]urea], 97.1%; in that of `COCCOCCCNC(=O)Nc1cc(C(=O)N2CCC(c3ccc(C#N)cc3)CC2)ccc1C` [Example 161, 1-[5-[4-(4-cyanophenyl)piperidine-1-carbonyl]-2-methyl-phenyl]-3-[3-(2-methoxyethoxy)propyl]urea], 93.7%. On the same count and under the same terms, in the case of `CC(C)NC(=O)Nc1cc(C(=O)N2CCC(c3ccc(C#N)cc3)CC2)ccc1S(C)(=O)=O` [Example 364, 3-[5-[4-(4-cyanophenyl)piperidine-1-carbonyl]-2-methylsulfonylphenyl]-1-propan-2-ylurea] it was 84.1%. The same measure, in the same setting: in the case of `COC[C@@H](CO)NC(=O)Nc1cc(C(=O)N2CCC(c3ccc(C#N)cc3)CC2)ccc1C` [Example 198, 1-[5-[4-(4-cyanophenyl)piperidine-1-carbonyl]-2-methyl-phenyl]-3-[(2R)-1-hydroxy-3-methoxy-propan-2-yl]urea] it was 87.9%; in that of `Cc1ccc(C(=O)N2CCC(c3ccc(C#N)cc3)CC2)cc1NC(=O)NC(C)CO` (stereo not shown) [Example 182, 1-[5-[4-(4-cyanophenyl)piperidine-1-carbonyl]-2-methyl-phenyl]-3-(1-hydroxypropan-2-yl)urea], 96.2%; in that of `Cc1ccc(C(=O)N2CCC(c3ccc(C#N)cc3)CC2)cc1NC(=O)NCC(C)(C)NC(=O)C(C)C` [Example 263, N-[1-[[5-[4-(4-cyanophenyl)piperidine-1-carbonyl]-2-methyl-phenyl]carbamoylamino]-2-methyl-propan-2-yl]-2-methyl-propanamide], 79%. In the case of `Cc1ccc(C(=O)N2CCC(c3ccc(C#N)cc3)CC2)cc1NC(=O)NCCN(C)C(=O)OC(C)(C)C` [Example 115, tert-butyl N-[2-[[5-[4-(4-cyanophenyl)piperidine-1-carbonyl]-2-methyl-phenyl]carbamoylamino]ethyl]-N-methyl-carbamate], the inhibition at 100 µM came to 92.9%. Turning to `CCOCC1CCCN1C(=O)Nc1cc(C(=O)N2CCC(c3ccc(C#N)cc3)CC2)ccc1C` (stereo not shown) [Example 399, N-[5-[4-(4-cyanophenyl)piperidine-1-carbonyl]-2-methylphenyl]-2-(ethoxymethyl)pyrrolidine-1-carboxamide], the inhibition at 100 µM is 73.3%.

Consider `Cc1ccc(C(=O)N2CCC(c3ccc(C#N)cc3)CC2)cc1NC(=O)NC1CCN(C(=O)N(C)C)CC1` [Example 284, 4-[[5-[4-(4-cyanophenyl)piperidine-1-carbonyl]-2-methyl-phenyl]carbamoylamino]-N,N-dimethyl-piperidine-1-carboxamide], for which the inhibition at 100 µM was 106%. Still for that read-out and setting: in the case of `Cc1ccc(C(=O)N2CCC(c3ccc(F)cc3)CC2)cc1NC(=O)NC1CN(C(=O)OC(C)(C)C)C1` [Example 339, tert-butyl 3-[[5-[4-(4-fluorophenyl)piperidine-1-carbonyl]-2-methyl-phenyl]carbamoylamino]azetidine-1-carboxylate] it was 81.3%; in that of `Cc1ccc(C(=O)N2CCC(c3ccc(C#N)cc3)CC2)cc1NC(=O)N1CC(NS(C)(=O)=O)C1` [Example 313, N-[5-[4-(4-cyanophenyl)piperidine-1-carbonyl]-2-methyl-phenyl]-3-methanesulfonamido-azetidine-1-carboxamide], 90.5%; in that of `Cc1ccc(C(=O)N2CCC(c3ccc(C#N)cc3)CC2)cc1NC(=O)NCCNc1nc(N)nc(C)c1C` [Example 94, 3-[2-[(2-amino-5,6-dimethyl-pyrimidin-4-yl)amino]ethyl]-1-[5-[4-(4-cyanophenyl)piperidine-1-carbonyl]-2-methyl-phenyl]urea], 89.6%. Same read-out and setting: in the case of `Cc1ccc(C(=O)N2CCC(c3ccc(C#N)cc3)CC2)cc1NC(=O)NC(C)(C)CO` [Example 190, 1-[5-[4-(4-cyanophenyl)piperidine-1-carbonyl]-2-methyl-phenyl]-3-(1-hydroxy-2-methyl-propan-2-yl)urea] it was 82.9%; in that of `Cc1ccc(C(=O)N2CCC(c3ccc(S(C)(=O)=O)cc3)CC2)cc1NC(=O)NC(C)C` [Example 374, 1-[2-methyl-5-[4-(4-methylsulfonylphenyl)piperidine-1-carbonyl]phenyl]-3-propan-2-ylurea], 71.8%. On the same count and under the same terms, in the case of `Cc1ccc(C(=O)N2CCC(c3ccc(C#N)cc3)CC2)cc1NC(=O)NCCCN1CCN(C)CC1` [Example 140, 1-[5-[4-(4-cyanophenyl)piperidine-1-carbonyl]-2-methyl-phenyl]-3-[3-(4-methylpiperazin-1-yl)propyl]urea] it was 79.2%.

Turning to `Cc1ccc(C(=O)N2CCC(c3ccc(C#N)cc3)CC2)cc1NC(=O)NCCC(=O)N(CCO)CCO` [Example 242, 3-[[5-[4-(4-cyanophenyl)piperidine-1-carbonyl]-2-methyl-phenyl]carbamoylamino]-N,N-bis(2-hydroxyethyl)propanamide], the inhibition at 100 µM turned out to be 90.6%. Same read-out and setting: in the case of `Cc1ccc(C(=O)N2CCC(c3ccc(C#N)cc3)CC2)cc1NC(=O)N[C@H]1CCNC1` [Example 213, 1-[5-[4-(4-cyanophenyl)piperidine-1-carbonyl]-2-methyl-phenyl]-3-[(3S)-pyrrolidin-3-yl]urea] it was 88.6%; in that of `Cc1ccc(C(=O)N2CCC(c3ccc(C#N)cc3)CC2)cc1NC(=O)N[C@H]1CC[C@H](NS(C)(=O)=O)C1` [Example 320, 1-[5-[4-(4-cyanophenyl)piperidine-1-carbonyl]-2-methyl-phenyl]-3-[(1S,3S)-3-methanesulfonamidocyclopentyl]urea], 94.4%. With `Cc1ccc(C(=O)N2CCC(c3ccc(C#N)cc3)CC2)cc1NC(=O)N[C@@H]1CCCC[C@@H]1NS(=O)(=O)N(C)C` (relative stereo) [Example 317, 1-[5-[4-(4-cyanophenyl)piperidine-1-carbonyl]-2-methyl-phenyl]-3-[(cis)-2-(dimethylsulfamoylamino)cyclohexyl]urea], the inhibition at 100 µM turned out to be 94.9%. The same measure, in the same setting: in the case of `Cc1ccc(C(=O)N2CCC(c3ccc(C#N)cc3)CC2)cc1NC(=O)NC(C)c1ccncc1` (stereo not shown) [Example 357, 1-[5-[4-(4-cyanophenyl)piperidine-1-carbonyl]-2-methyl-phenyl]-3-(1-pyridin-4-ylethyl)urea] it was 102%. In the case of `Cc1ccc(C(=O)N2CCC(c3ccc(C#N)cc3)CC2)cc1NC(=O)NCC(=O)N(C)C` [Example 238, 2-[[5-[4-(4-cyanophenyl)piperidine-1-carbonyl]-2-methyl-phenyl]carbamoylamino]-N,N-dimethyl-acetamide], the inhibition at 100 µM was 89.9%. `CNC(=O)Nc1cc(C(=O)N2CCC(c3ccc(C#N)cc3)CC2)ccc1C` [Example 361, 1-[5-[4-(4-cyanophenyl)piperidine-1-carbonyl]-2-methyl-phenyl]-3-methyl-urea]: the inhibition at 100 µM worked out at 101%. Same read-out and setting: in the case of `Cc1ccc(C(=O)N2CCC(c3ccc(C#N)cc3)CC2)cc1NC(=O)NCCCN1CCCC1=O` [Example 131, 1-[5-[4-(4-cyanophenyl)piperidine-1-carbonyl]-2-methyl-phenyl]-3-[3-(2-oxopyrrolidin-1-yl)propyl]urea] it was 89.8%; in that of `CC(=O)N(C)CCNC(=O)Nc1cc(C(=O)N2CCC(c3ccc(F)cc3)CC2)ccc1C` [Example 352, N-[2-[[5-[4-(4-fluorophenyl)piperidine-1-carbonyl]-2-methyl-phenyl]carbamoylamino]ethyl]-N-methyl-acetamide], 75.6%; in that of `Cc1ccc(C(=O)N2CCC(c3ccc(C#N)cc3)CC2)cc1NC(=O)N[C@H](C)c1ccccc1` [Example 106, 1-[5-[4-(4-cyanophenyl)piperidine-1-carbonyl]-2-methyl-phenyl]-3-[(1R)-1-phenylethyl]urea], 90.3%. Same read-out and setting: in the case of `Cc1ccc(C(=O)N2CCC(c3ccc(C(F)(F)F)cc3)CC2)cc1NC(=O)NCCNS(C)(=O)=O` [Example 341, 3-(2-methanesulfonamidoethyl)-1-[2-methyl-5-[4-[4-(trifluoromethyl)phenyl]piperidine-1-carbonyl]phenyl]urea] it was 95.4%; in that of `Cc1ccc(C(=O)N2CCC(c3ccc(C#N)cc3)CC2)cc1NC(=O)N1CCC(S(C)(=O)=O)C1` (stereo not shown) [Example 344, N-[5-[4-(4-cyanophenyl)piperidine-1-carbonyl]-2-methyl-phenyl]-3-methylsulfonyl-pyrrolidine-1-carboxamide], 112%; in that of `CC(=O)N[C@@H]1CCCC[C@@H]1NC(=O)Nc1cc(C(=O)N2CCC(c3ccc(C#N)cc3)CC2)ccc1C` (relative stereo) [Example 308, N-[(cis)-2-[[5-[4-(4-cyanophenyl)piperidine-1-carbonyl]-2-methyl-phenyl]carbamoylamino]cyclohexyl]acetamide], 91.5%.

The same assay, now with this note: FAS enzyme assay, IC50 from fitted sigmoid curves.
As for `Cc1ccc(C(=O)N2CCC(O)(c3ccccc3F)CC2)cc1NC(=O)NC(C)C` [1-[5-[4-(2-fluorophenyl)-4-hydroxypiperidine-1-carbonyl]-2-methylphenyl]-3-propan-2-ylurea], the “IC50, inhibition of human Fatty Acid Synthase” value is reported as “do not have IC50s in the range of about 0.001 μM to about 30 μM”.

For the origin of these results see US20090118332A1, “Therapeutic Agents - 551” (AstraZeneca AB, priority 2006, published 2009).
